Measurements as given in patent US20120115893A1, “Substituted Bicyclic Carboxamide and Urea Compounds as Vanilloid Receptor Ligands” (Gruenenthal GmbH, priority 2010, published 2012).

Assays:
[1] = molecular target: T1, vanilloid receptor 1 (VR1/TRPV1 receptor) (Homo sapiens, UniProt Q8NER1); assay: FLIPR Ca2+ influx assay, capsaicin stimulus, CHO K1 cells transfected with human VR1 gene; assay type: cell-based, human being; conditions: for Ki / (f) Ki (human being) [nM] Cap: functional, NE=no effect; for Ki: read-out: (f) Ki (human being) [nM] Cap; for inhibition at 5 µM: CHO-K1, @ 5 μM, read-out: inhibition (as a percentage), (f) Ki (human being) Cap column
T1 construct: expressed in transfected cells; host or cells: CHO K1 cells (ECACC), stably transfected
T1 sequence (Q8NER1 whole entry): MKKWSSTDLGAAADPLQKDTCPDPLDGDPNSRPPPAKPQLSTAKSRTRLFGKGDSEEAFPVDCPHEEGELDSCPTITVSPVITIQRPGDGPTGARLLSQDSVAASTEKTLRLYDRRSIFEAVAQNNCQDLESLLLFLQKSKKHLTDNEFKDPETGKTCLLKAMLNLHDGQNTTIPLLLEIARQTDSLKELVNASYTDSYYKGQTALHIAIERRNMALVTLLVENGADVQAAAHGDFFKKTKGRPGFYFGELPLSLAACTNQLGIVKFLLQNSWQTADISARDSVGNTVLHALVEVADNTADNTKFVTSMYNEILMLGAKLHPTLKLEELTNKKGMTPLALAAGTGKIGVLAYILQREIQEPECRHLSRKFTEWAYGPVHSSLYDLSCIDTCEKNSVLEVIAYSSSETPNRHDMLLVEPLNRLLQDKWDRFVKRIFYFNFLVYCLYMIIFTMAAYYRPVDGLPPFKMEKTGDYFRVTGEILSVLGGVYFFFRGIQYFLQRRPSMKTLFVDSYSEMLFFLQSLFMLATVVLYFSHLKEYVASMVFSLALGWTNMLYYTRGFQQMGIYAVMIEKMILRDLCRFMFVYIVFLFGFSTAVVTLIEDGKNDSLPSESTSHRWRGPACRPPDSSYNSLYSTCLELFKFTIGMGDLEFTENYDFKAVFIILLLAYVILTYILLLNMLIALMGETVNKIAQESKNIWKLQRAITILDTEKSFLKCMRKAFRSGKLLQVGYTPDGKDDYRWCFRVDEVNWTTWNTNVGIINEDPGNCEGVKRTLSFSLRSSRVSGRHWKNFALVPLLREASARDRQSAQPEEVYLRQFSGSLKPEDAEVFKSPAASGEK
Method: Furthermore, preference may be given to compounds according to the invention of general formula (I) that cause a 50 percent displacement of capsaicin, which is present at a concentration of 100 nM, in a FLIPR assay with CHO K1 cells which were transfected with the human VR1 gene at a concentration of less than 2,000 nM, preferably less than 1,000 nM, particularly preferably less than 300 nM, most particularly preferably less than 100 nM, even more preferably less than 75 nM, additionally preferably less than 50 nM, most preferably less than 10 nM.
In the process, the Ca^2+ influx is quantified in the FLIPR assay with the aid of a Ca^2+-sensitive dye (type Fluo-4, Molecular Probes Europe BV, Leiden, the Netherlands) in a fluorescent imaging plate reader (FLIPR, Molecular Devices, Sunnyvale, USA), as described hereinafter.
(§1) The agonistic or antagonistic effect of the substances to be tested on the vanilloid receptor 1 (VR1) can also be determined using the following assay. In this assay, the influx of Ca^2+ through the channel is quantified with the aid of a Ca^2+-sensitive dye (type Fluo-4, Molecular Probes Europe BV, Leiden, the Netherlands) in a fluorescent imaging plate reader (FLIPR, Molecular Devices, Sunnyvale, USA).
(§2) Chinese hamster ovary cells (CHO K1 cells, European Collection of Cell Cultures (ECACC) United Kingdom) are stably transfected with the VR1 gene. For functional testing, these cells are plated out on poly-D-lysine-coated black 96-well plates having a clear base (BD Biosciences, Heidelberg, Germany) at a density of 25,000 cells/well. The cells are incubated overnight at 37° C. and 5% CO2 in a culture medium (Ham's F12 nutrient mixture, 10% by volume of FCS (foetal calf serum), 18 μg/ml of L-proline). The next day the cells are incubated with Fluo-4 (Fluo-4 2 μM, 0.01% by volume of Pluronic F127, Molecular Probes in HBSS (Hank's buffered saline solution), Gibco Invitrogen GmbH, Karlsruhe, Germany) for 30 minutes at 37° C. Subsequently, the plates are washed three times with HBSS buffer and after further incubation for 15 minutes at RT used for Ca^2+ measurement in a FLIPR assay. The Ca^2+-dependent fluorescence is measured before and after the addition of the substances to be tested (λex wavelength=488 nm, λem=540 nm). Quantification is carried out by measuring the highest fluorescence intensity (FC, fluorescence counts) over time.
The FLIPR protocol consists of 2 substance additions. First the compounds to be tested (10 μM) are pipetted onto the cells and the Ca^2+ influx is compared with the control (capsaicin 10 μM) (% activation based on the Ca^2+ signal after the addition of 10 μM of capsaicin). After 5 minutes' incubation, 100 nM of capsaicin are applied and the Ca^2+ influx is also determined.
Desensitising agonists and antagonists led to suppression of the Ca^2+ influx. The % inhibition is calculated compared to the maximum achievable inhibition with 10 μM of capsaicin.
Starting from the percentage displacement caused by different concentrations of the compounds to be tested of general formula I, IC50 inhibitory concentrations which cause a 50-percent displacement of capsaicin were calculated. K, values for the test substances were obtained by conversion by means of the Cheng-Prusoff equation (Cheng, Prusoff; Biochem. Pharmacol. 22, 3099-3108, 1973).

[2] = molecular target: T1, vanilloid receptor 1 (VR1/TRPV1 receptor); assay: Functional VR1 assay, heat stimulus 45° C.; assay type: cell-based, human being; conditions: human VR1, heat stimulus 45° C.
Description: as §1
as §2, with “Subsequently, the plates are washed three times with HBSS buffer and after further incubation for 15 minutes at RT used for Ca^2+ measurement in a FLIPR assay.” left out

[3] = molecular target: T2, vanilloid receptor 1 (VR1/TRPV1 receptor) (Mus musculus, UniProt Q704Y3); assay: FLIPR Ca2+ influx assay, capsaicin stimulus, mouse VR1; assay type: cell-based; conditions: functional, read-out: (f) Ki (mouse) [nM] Cap
T2 construct: expressed in transfected cells; host or cells: CHO K1 cells stably transfected (inferred from method II)
T2 sequence (Q704Y3 whole entry): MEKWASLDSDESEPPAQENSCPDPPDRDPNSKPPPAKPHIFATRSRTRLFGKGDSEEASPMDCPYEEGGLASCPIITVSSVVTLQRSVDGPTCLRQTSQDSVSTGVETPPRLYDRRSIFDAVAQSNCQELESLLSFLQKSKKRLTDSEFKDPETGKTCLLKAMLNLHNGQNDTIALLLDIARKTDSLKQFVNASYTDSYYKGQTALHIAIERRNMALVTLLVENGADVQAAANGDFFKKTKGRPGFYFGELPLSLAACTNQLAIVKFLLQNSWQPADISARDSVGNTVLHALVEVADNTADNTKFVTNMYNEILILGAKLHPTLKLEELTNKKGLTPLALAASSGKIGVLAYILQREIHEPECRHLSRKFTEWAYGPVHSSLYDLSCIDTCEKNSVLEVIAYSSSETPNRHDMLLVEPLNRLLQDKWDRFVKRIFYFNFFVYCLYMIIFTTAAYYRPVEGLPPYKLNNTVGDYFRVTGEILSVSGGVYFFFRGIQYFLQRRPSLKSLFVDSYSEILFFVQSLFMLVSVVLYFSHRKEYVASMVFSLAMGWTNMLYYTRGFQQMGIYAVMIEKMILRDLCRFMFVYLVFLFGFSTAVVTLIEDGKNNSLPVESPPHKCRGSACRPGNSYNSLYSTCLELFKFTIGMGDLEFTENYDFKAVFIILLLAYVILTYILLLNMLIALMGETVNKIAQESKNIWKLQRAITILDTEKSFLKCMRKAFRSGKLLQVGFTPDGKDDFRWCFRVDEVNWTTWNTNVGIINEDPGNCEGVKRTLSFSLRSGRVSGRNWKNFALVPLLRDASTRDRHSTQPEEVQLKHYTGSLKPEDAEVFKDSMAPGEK
Description: as §1
Chinese hamster ovary cells (CHO K1 cells, European Collection of Cell Cultures (ECACC) United Kingdom) are stably transfected with the VR1 gene. For functional testing, these cells are plated out on poly-D-lysine-coated black 96-well plates having a clear base (BD Biosciences, Heidelberg, Germany) at a density of 25,000 cells/well. […] The Ca^2+-dependent fluorescence is measured before and after the addition of the substances to be tested (λex wavelength=488 nm, λem=540 nm). Quantification is carried out by measuring the highest fluorescence intensity (FC, fluorescence counts) over time.
The FLIPR protocol consists of 2 substance additions. […] After 5 minutes' incubation, 100 nM of capsaicin are applied and the Ca^2+ influx is also determined. […]
Starting from the percentage displacement caused by different concentrations of the compounds to be tested of general formula I, IC50 inhibitory concentrations which cause a 50-percent displacement of capsaicin were calculated. […]

In the case of CC(C(=O)NCc1cc(C(F)(F)F)nn1-c1cccc(Cl)c1)C1CCCc2ccc(O)cc21 (stereo not drawn) [Example 12, N-((1-(3-chlorophenyl)-3-(trifluoromethyl)-1H-pyrazol-5-yl)methyl)-2-(7-hydroxy-1,2,3,4-tetrahydronaphthalen-1-yl)propanamide], the Ki [1] is reported as 49.2 nM and the inhibition at 2.5 µM ([2]; @ 2.5 μM, read-out: inhibition (as a percentage), IC50 (human being) 45° C. column) is reported as 30%.

Cn1ncc2c1CCCC2NC(=O)NCc1cc(C(F)(F)F)nn1-c1cccc(Cl)c1 (stereo not drawn) [Example 7, 1-((1-(3-chlorophenyl)-3-(trifluoromethyl)-1H-pyrazol-5-yl)methyl)-3-(1-methyl-4,5,6,7-tetrahydro-1H-indazol-4-yl)urea] was tested, and the “(f) Ki (human being) [nM] Cap” value [1] was “Ne”.

Work on O=C(NCc1cc(C(F)(F)F)nn1-c1cccc(Cl)c1)NC1CCCc2ccc(O)cc21 (stereo not drawn) [Example 13, 1-((1-(3-chlorophenyl)-3-(trifluoromethyl)-1H-pyrazol-5-yl)methyl)-3-(7-hydroxy-1,2,3,4-tetrahydronaphthalen-1-yl)urea] yielded a Ki [1] of 16.1 nM and an IC50 ([2]; read-out: IC50 (human being) [nM], 45° C.) of 1860 nM.

Work on O=C(NCc1cc(C(F)(F)F)nn1-c1cccc(Cl)c1)NC1CCCc2cnccc21 (stereo not drawn) [Example 19, 1-((1-(3-chlorophenyl)-3-(trifluoromethyl)-1H-pyrazol-5-yl)methyl)-3-(5,6,7,8-tetrahydroisoquinolin-5-yl)urea] yielded an inhibition at 5 µM [1] of 38%.

Compound CC(C(=O)NCc1cc(C(F)(F)F)nn1-c1ccc(F)c(Cl)c1)C1CCCc2ccc(O)cc21 (stereo not drawn) [Example 15, N-((1-(3-chloro-4-fluorophenyl)-3-(trifluoromethyl)-1H-pyrazol-5-yl)methyl)-2-(7-hydroxy-1,2,3,4-tetrahydronaphthalen-1-yl)propanamide] has a Ki [1] of 29.5 nM.

With CC(C)(C)c1ccc2c(c1)CC[C@@H]2NC(=O)NCc1cc(C(F)(F)F)nn1-c1cccc(Cl)c1 [Example 3, (S)-1-(5-tert-butyl-2,3-dihydro-1H-inden-1-yl)-3-((1-(3-chlorophenyl)-3-(trifluoromethyl)-1H-pyrazol-5-yl)methyl)urea] the “(f) Ki (human being) [nM] Cap” value [1] was “Ne”.

CC(C)(C)c1cc(CNC(=O)NC2CCCc3ccc(O)cc32)n(-c2cccc(Cl)c2)n1 (stereo not drawn) [Example 14, 1-((3-tert-butyl-1-(3-chlorophenyl)-1H-pyrazol-5-yl)methyl)-3-(7-hydroxy-1,2,3,4-tetrahydronaphthalen-1-yl)urea] showed a Ki [1] of 7.7 nM and a Ki [3] of 132 nM.

In the case of “N-((1-(3-chlorophenyl)-3-(trifluoromethyl)-1H-pyrazol-5-yl)methyl)-2-(7-hydroxy-1,2,3,4-tetrahydronaphthalen-1-yl)propanamide [Example 10]”, the “inhibition (as a percentage), (f) Ki (human being) Cap column” value ([1]; @ 1 μM) is reported as 14% @ 1 μM and the “inhibition (as a percentage), (f) Ki (human being) Cap column” value ([1]; @ 5 μM) is reported as 34% @ 5 μM.

For CC(C)(C)c1ccc2c(c1)C[C@H](NC(=O)NCc1cc(C(C)(C)C)nn1-c1cccc(Cl)c1)C2 [Example 4, (R)-1-((3-tert-butyl-1-(3-chlorophenyl)-1H-pyrazol-5-yl)methyl)-3-(5-tert-butyl-2,3-dihydro-1H-inden-2-yl)ure], the “(f) Ki (human being) [nM] Cap” value [1] was “Ne”.

Compound CC(C)(C)c1cc(CNC(=O)NC2CCCc3cnccc32)n(-c2cccc(Cl)c2)n1 (stereo not drawn) [Example 20, 1-((3-tert-butyl-1-(3-chlorophenyl)-1H-pyrazol-5-yl)methyl)-3-(5,6,7,8-tetrahydroisoquinolin-5-yl)urea] has a Ki [1] of 73.6 nM.

For CC(C)(C)c1ccc2c(c1)CC[C@H]2NC(=O)NCc1cc(C(F)(F)F)nn1-c1cccc(Cl)c1 [Example 2, (R)-1-(5-tert-butyl-2,3-dihydro-1H-inden-1-yl)-3-((1-(3-chlorophenyl)-3-(trifluoromethyl)-1H-pyrazol-5-yl)methyl)urea], the inhibition at 5 µM [1] was 33%.
